{"source": "patent US20250019644A1", "about": "“Quantitatively Mapping Amino Acid Properties (QMAP) Cell Culture Media” (UNIVERSITY OF IOWA RESEARCH FOUNDATION, priority 2023, published 2025)", "key": {"HCT116 cells": {"system": "HCT116 cells", "assay": "Screen 2: metabolic profiling with unlabeled amino acids (LC-MS)", "type": "cell-based, human", "conditions": "0.5, 1, 2 mM, dose-dependent, 6 hours", "procedure": "Media was changed to QMAP plus individual amino acid treatments at the start of the experiment. 200 mM amino acid stocks were used to make the QMAP+individual amino acid treatment medias that were placed in the tissue culture incubator for 30-45 minutes prior to the start of the dosing for equilibration of media bicarbonate with incubator CO2. For metabolomic profiling experiments, cells were treated with additional amino acid doses of 0.5, 1 and 2 mM, and 1 mM was used for stable isotope tracing experiments. To minimize systematic error, each amino acid dose was added as a batch (20 amino acids+vehicle control) such that each well of each plate contained a different amino acid. The process was repeated for the other two concentrations of amino acids on the next plates to make set. This was repeated four more times to achieve the sample size of 5 replicates for each of the 3 doses of amino acids. Each plate was then incubated for 6 hours in the tissue culture incubator before being rapidly washed twice with sterile water and snap frozen on liquid nitrogen before being stored at −80° C. The next day, the plates were lyophilized for 90 minutes and then stored at −80° C.\nExtraction buffer was prepared by adding 2:2:1 methanol: acetonitrile: water. For profiling, the following internal standards (Cambridge Isotope Laboratories) were added at 1 μg/mL each: L-Valine-D8, L-Aspartate (^13C4, D3, ^15N) and Succinate (13C4D4). 6-well plates were removed from storage at −80° C. and 1 ml of ice-cold extraction buffer was added. Plates were incubated at −20° C. for 5 minutes, scraped, transferred to microcentrifuge tubes and frozen in liquid nitrogen. Tubes were then placed into a sonicating water bath for 10 minutes and rotated at −20° C. for 1 hour before being centrifuged at 4° C. for 10 minutes at 21,000×g. […] of extract was dried down completely using a speed-vacuum (˜90 min), dissolved in […] of acetonitrile: water (1:1), vortexed for 10 min, and stored overnight at −20° C. to allow protein precipitation. Samples were then centrifuged at 4° C. for 10 minutes at 21,000×g and the supernatants were transferred into autosampler vials for analysis. For the QCs, […] of each extract was pooled, at the step prior to drying down, mixed and dried in […] amounts alongside the samples. Once dried, QCs were processed with the samples but recombined prior to being aliquoted into autosampler vials. All samples were then frozen at −80° C., and only one set of samples, which included a QC aliquot, was thawed, vortexed and placed into the instrument.\nThe sheath gas flow was set to 40 units, the auxiliary gas flow was set to 15 units and the sweep gas flow was set to 1 unit. […] For tracing, […] of sample was injected twice in either positive or negative mode to maximize detection efficiency and minimize metabolite crowding using the Sim-mode.\nLC-MS data was processed using the Thermo Scientific TraceFinder 5.1 software.\nThe three cell lines were then treated with 0.5, 1, and 2 mM of individual, unlabeled amino acids, and metabolic profiling was performed to determine how individual amino acids quantitatively altered metabolite abundance (Screen 2)."}, "3T3-L1": {"system": "3T3-L1", "assay": "CellTiter-Glo Luminescent Cell Viability Assay", "type": "cell-based, mouse", "conditions": "2 mM, 24 hours, DMEM", "procedure": "HT29, 293T, U2OS, and 3T3-LI cells were plated on an opaque 96-well plate in 1:1 DMEM. […] At the appropriate time point, 100 μl of CellTiter-Glo reagent (Promega #G7570) was added to each well. The plate was gently mixed for 2 minutes to induce lysis, incubated at room-temperature for 10 minutes, and then luminescence was measured.\nTo test whether tryptophan inhibition of growth applied to other cell lines and persisted in conventional cell culture media, two human cancer cell lines (HT29, U2OS), a transformed human embryonic kidney cell line (293T), and a mouse, fibroblast-like cell line (3T3-L1) were grown in DMEM for 24 hours and then treated with 2 mM tryptophan or vehicle. After 24 hours, cells were assayed by CellTiter-Glo, which indicates cell viability by measuring ATP production."}}}
{"smiles": "N[C@@H](Cc1c[nH]c2ccccc12)C(=O)O", "note": "[tryptophan, L-tryptophan]", "values": [{"measurement": "distal TCA cycle metabolite levels (alpha-ketoglutarate to malate)", "setting": "HCT116 cells", "value": "decreased"}, {"measurement": "glutamine levels", "setting": "HCT116 cells", "value": "increased"}, {"measurement": "cell viability compared to vehicle", "setting": "3T3-L1", "value": "significant decreases"}]}
